Data reported in patent US8129345B2, “MUC1-IκB kinase complexes and their activities” (Dana-Farber Cancer Institute, Inc., priority 2006, dated 2012).

How the values were obtained:
IKKβ-IKKγ complexes = IKKβ-IKKγ complexes (Homo sapiens, UniProt O14920+Q9Y6K9); test: In vitro association of IKKβ with GST-IKKγ in absence and presence of MUC1-CD proteins; format: binding; settings: purified IKKβ and GST-IKKγ, with or without added MUC1 protein
Procedure: FIG. 7C is a series of photographs of immunoblots. GST- or GST-IKKγ bound to glutathione beads was incubated with IKKβ in the absence and presence of MUC1-CD protein. The precipitates were immunoblotted (IB) with anti-IKKβ (upper panel). Input amounts of the various proteins were assessed by immunoblotting with the indicated antibodies (lower 3 panels). The molecular weights of proteins (as indicated on the left of the photographs) are expressed as kilodaltons (kDa).
(§1) FIG. 12 is a series of photographs of immunoblots. GST, and GST-IKKγ fusion proteins bound to glutathione beads were incubated with MUC1-CD, MUC1-CD(mSRM), or IKKβ proteins as indicated. The GST-pull down precipitates were immunoblotted (IB) with antibodies specific for IKKγ (top panel), IKKβ (middle panel), or MUC1 (bottom panel) as indicated. The molecular weights of proteins (as indicated on the left of the photographs) are expressed as kilodaltons (kDa).
In vitro binding assays. Purified GST-MUC1-CD (glutathione s-transferase fused to the MUC1-CD polypeptide) was cleaved with thrombin to remove the GST moiety. […] Adsorbates to glutathione-conjugated beads were analyzed by immunoblotting.

IKKβ = IKKβ (Homo sapiens, UniProt O14920); test: In vitro incubation of IKKβ and IKKγ with ATP, phospho-IKKβ-Ser-181 immunoblot; format: biochemical; settings: MUC1 protein added to the reaction
Procedure: as §1, with “13” for “12”, “for (from top to bottom) phosphor-IKKβ-Ser-181 (first panel),” for “for”, “(second” for “(top”, “(third” for “(middle”, “(fourth” for “(bottom”

ZR-75-1/MUC1siRNA cells = test: Expression of Flag-tagged MUC1-CD in ZR-75-1/MUC1siRNA cells; format: cell-based, Human; settings: compared to empty vector
Procedure: (§2) FIG. 9A is a pair of photographs of immunoblots. ZR-75-1/MUC1siRNA cells were transfected with the empty pIRES-puro2 vector or a pIRES-puro2-Flag-MUC1-CD vector. Lysates were prepared from the cells and subjected to SDS-PAGE and immunoblotting using antibodies specific to MUC1-C or β-actin as a control. The molecular weights of proteins (as indicated on the left of the photographs) are expressed as kilodaltons (kDa).
as §2, with “FIG. 9B” for “FIG. 9A”, “to immunoprecipitation” for “to SDS-PAGE and immunoblotting”, “to IKKγ. Immunoprecipitates were immunoblotted using antibodies specific for IKKβ” for “to MUC1-C”, “or IKKγ” for “or β-actin”, “as indicated.” for “as a control.”
as §2, with “9C” for “9A”, “immunoprecipitation” for “SDS-PAGE and immunoblotting”, “for IKKβ. Immunoprecipitates were immunoblotted using antibodies specific for phospho-IKKβ-ser-181” for “to MUC1-C”, “IKKβ” for “β-actin”, “indicated.” for “a control.”
FIG. 9D is a pair of photographs of immunoblots. Cytosolic fractions were prepared from ZR-75-1/MUC1siRNA cells transfected with the empty pIRES-puro2 vector or a pIRES-puro2-Flag-MUC1-CD vector. Lysates were immunoblotted with anti-phospho-IκBα and anti-IκBα antibodies where indicated. The molecular weights of proteins (as indicated on the left of the photographs) are expressed as kilodaltons (kDa).
FIG. 9E is a photograph of an immunoblot. Nuclear fractions were prepared from ZR-75-1/MUC1siRNA cells transfected with the empty pIRES-puro2 vector or a pIRES-puro2-Flag-MUC1-CD vector and subjected to immunoblotting with antibodies specific for NF-κB or lamin B as a control. As a further control for the quality of nuclear fractionation, immunoblotting for IκBα was performed using antibodies specific for IκBα. The molecular weights of proteins (as indicated on the left of the photographs) are expressed as kilodaltons (kDa).
Subcellular fractionation. Nuclear and cytosolic fractions were prepared as described in Kharbanda et al. (1996) Cancer Res. 56:3617-3621.
Immunoprecipitation and immunoblotting. Lysates from subconfluent cells were prepared as described in Ren et al. (2004) Cancer Cell 5:163-175. […] The immune complexes were detected with horseradish peroxidase-conjugated secondary (anti-IgG) antibodies (Amersham Biosciences) and enhanced chemiluminescence (ECL; Amersham Biosciences). […]

IKKβ-IKKγ complexes, sequence (O14920 whole entry): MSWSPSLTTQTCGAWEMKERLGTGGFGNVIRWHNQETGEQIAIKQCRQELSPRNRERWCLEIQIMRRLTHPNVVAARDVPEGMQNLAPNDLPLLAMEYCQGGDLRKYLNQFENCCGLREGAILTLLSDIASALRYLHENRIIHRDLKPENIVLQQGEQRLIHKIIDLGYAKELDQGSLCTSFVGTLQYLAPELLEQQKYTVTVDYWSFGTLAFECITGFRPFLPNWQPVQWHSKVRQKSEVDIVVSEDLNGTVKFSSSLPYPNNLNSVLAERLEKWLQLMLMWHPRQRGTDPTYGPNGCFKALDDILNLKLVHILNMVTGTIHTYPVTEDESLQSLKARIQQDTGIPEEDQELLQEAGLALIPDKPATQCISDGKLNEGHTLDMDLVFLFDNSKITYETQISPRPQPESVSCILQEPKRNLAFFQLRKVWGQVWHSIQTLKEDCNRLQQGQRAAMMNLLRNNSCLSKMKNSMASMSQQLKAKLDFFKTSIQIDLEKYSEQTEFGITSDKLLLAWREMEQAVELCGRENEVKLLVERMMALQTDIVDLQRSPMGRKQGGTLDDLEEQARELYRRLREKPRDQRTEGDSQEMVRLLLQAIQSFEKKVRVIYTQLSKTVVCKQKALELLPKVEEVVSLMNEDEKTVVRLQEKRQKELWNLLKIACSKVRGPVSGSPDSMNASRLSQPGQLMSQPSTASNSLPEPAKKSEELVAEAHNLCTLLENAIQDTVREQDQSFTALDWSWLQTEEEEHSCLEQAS
IKKβ-IKKγ complexes, sequence (Q9Y6K9 whole entry): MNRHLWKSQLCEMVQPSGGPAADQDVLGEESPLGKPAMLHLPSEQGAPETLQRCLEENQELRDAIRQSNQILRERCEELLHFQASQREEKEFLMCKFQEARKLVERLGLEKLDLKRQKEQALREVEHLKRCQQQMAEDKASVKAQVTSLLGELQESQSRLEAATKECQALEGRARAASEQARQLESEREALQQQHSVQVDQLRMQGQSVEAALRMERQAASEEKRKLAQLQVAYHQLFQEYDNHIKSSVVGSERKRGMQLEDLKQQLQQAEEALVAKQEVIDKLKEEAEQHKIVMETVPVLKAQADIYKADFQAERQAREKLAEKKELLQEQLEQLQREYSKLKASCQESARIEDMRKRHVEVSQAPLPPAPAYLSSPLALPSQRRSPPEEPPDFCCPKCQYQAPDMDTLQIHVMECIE
IKKβ, sequence (O14920 whole entry): as the sequence (O14920 whole entry) above
IKKβ, sequence (Q9Y6K9 whole entry partner): as the sequence (Q9Y6K9 whole entry) above

“MUC1-CD: 72 amino acid cytoplasmic domain of human MUC1, SEQ ID NO:2” was tested, and the “interaction between IKKβ and IKKγ” value (IKKβ-IKKγ complexes) was “increases the interaction between IKKβ and IKKγ”, the “extent of IKKβ phosphorylation on Ser-181” value (IKKβ) was “increased significantly” and the IKKβ-IKKγ complex formation (ZR-75-1/MUC1siRNA cells) was “increases in IKKβ-IKKγ complex formation”. The “phosphorylation of IKKβ on Ser-181” value (ZR-75-1/MUC1siRNA cells) was “increased phosphorylation”, the “phosphorylation of IκBα” value (ZR-75-1/MUC1siRNA cells; cytosolic fractions) was “increased phosphorylation” and the “targeting of NF-κB p65 to the nucleus” value (ZR-75-1/MUC1siRNA cells; nuclear fractions) was “increased targeting of NF-κB p65 to the nucleus”.
